Laboratory results: ChEMBL document CHEMBL6134884, “Identification of JNJ-61803534, a RORγt Inverse Agonist for the Treatment of Psoriasis” (J Med Chem, 2025)

Legend:
[1] = molecular target: T1, Nuclear receptor subfamily 1 group I member 2 (Homo sapiens, UniProt O75469); assay: Activation of human PXR at 1 uM relative to control; assay type: toxicity
T1 sequence (O75469 whole entry): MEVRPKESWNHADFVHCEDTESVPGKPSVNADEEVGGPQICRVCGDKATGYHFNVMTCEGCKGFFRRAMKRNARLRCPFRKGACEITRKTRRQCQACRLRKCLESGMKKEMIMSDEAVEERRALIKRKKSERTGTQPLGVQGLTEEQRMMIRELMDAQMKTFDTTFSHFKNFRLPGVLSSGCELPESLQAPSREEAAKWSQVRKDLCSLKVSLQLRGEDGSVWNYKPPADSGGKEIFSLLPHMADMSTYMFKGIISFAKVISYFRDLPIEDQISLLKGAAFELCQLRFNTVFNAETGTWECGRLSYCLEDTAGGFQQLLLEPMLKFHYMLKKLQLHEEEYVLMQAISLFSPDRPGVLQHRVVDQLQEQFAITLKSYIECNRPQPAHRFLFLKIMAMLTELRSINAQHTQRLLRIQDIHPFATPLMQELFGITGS

[2] = molecular target: T2, PXR (Homo sapiens, UniProt O75469); assay: Activation of human PXR at 5 uM relative to control; assay type: toxicity; conditions: read-out: Activity
T2 sequence (O75469 whole entry): T1 sequence (O75469 whole entry)

[3] = Plasma protein binding in rat assessed as unbound fraction; assay type: ADME, cell-free
[4] = Volume of distribution at steady state in male overnight fasted Beagle dog at 5 mg/kg, po or 1 mg/kg, iv measured 24 hrs post dose by LC-MS/MS analysis; assay type: ADME, organism-based, Canis lupus familiaris; conditions: in vivo
[5] = Plasma protein binding in mouse assessed as unbound fraction; assay type: ADME, cell-free
[6] = molecular target: Cytochrome P450 2C9 (Homo sapiens, UniProt P11712); assay: Inhibition of human CYP2C9; assay type: ADME
[7] = Aqueous solubility of the compound at pH 7; assay type: physicochemical; conditions: aqueous solution
[8] = Inverse agonist activity at RORgammat in rat whole blood assessed as IL-17A production incubated for 1 hrs by ELISA analysis; assay type: tissue-based
[9] = Oral bioavailability in male Sprague-Dawley rat at 5 mg/kg measured 24 hrs post dose by LC-MS/MS analysis; assay type: ADME, organism-based; conditions: in vivo
[10] = Metabolic stability in rat liver microsomes assessed as half life; assay type: ADME, Microsome
[11] = molecular target: T3, Nuclear receptor subfamily 1 group I member 3 (Homo sapiens, UniProt Q14994); assay: Agonist activity at CAR (unknown origin) up to 1.5 uM by mammalian 1-hybrid assay
T3 sequence (Q14994 whole entry): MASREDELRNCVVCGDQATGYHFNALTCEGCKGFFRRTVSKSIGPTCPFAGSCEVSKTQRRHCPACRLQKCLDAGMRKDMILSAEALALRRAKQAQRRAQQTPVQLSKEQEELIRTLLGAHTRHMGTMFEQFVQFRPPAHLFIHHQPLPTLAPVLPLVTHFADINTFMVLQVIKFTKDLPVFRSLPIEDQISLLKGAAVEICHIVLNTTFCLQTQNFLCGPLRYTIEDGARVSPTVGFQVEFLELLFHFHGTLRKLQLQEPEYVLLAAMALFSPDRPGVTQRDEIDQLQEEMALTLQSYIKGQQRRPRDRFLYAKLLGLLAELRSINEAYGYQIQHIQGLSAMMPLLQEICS

[12] = Metabolic stability in mouse liver microsomes assessed as half life; assay type: ADME, Microsome
[13] = molecular target: T4, Nuclear receptor ROR-gamma (Mus musculus, UniProt P51450); assay: Inverse agonist activity at RORgammat in mouse whole blood assessed as IL-17A production incubated for 1 hrs by ELISA analysis
T4 sequence (P51450 whole entry): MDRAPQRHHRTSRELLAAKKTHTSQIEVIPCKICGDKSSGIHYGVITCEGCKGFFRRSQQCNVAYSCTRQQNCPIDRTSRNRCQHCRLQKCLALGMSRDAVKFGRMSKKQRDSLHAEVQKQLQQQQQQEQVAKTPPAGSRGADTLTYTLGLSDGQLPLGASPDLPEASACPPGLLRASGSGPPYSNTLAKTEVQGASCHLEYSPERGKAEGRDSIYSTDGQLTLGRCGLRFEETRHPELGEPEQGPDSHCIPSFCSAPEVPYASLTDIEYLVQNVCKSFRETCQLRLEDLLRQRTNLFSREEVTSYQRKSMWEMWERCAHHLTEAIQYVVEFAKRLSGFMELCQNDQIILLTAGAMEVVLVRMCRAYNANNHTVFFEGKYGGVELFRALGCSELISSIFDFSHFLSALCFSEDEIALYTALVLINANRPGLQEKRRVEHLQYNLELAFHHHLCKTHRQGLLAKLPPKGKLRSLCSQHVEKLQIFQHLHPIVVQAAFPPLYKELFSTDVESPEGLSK

[14] = Metabolic stability in human liver microsomes assessed as half life; assay type: ADME, Microsome
[15] = molecular target: Cytochrome P450 2D6 (Homo sapiens, UniProt P10635); assay: Inhibition of human CYP2D6; assay type: ADME
[16] = Half life in male Sprague-Dawley rat at 5 mg/kg, po or 1 mg/kg, iv measured 24 hrs post dose by LC-MS/MS analysis; assay type: ADME, organism-based; conditions: in vivo
[17] = molecular target: hERG (Homo sapiens, UniProt Q12809); assay: Inhibition of hERG at 10 uM by Q-patch clamp method relative to control; assay type: toxicity
[18] = molecular target: T3, Nuclear receptor subfamily 1 group I member 3; assay: Antagonist activity at CAR (unknown origin) up to 1.5 uM by mammalian 1-hybrid assay
[19] = Plasma protein binding in human assessed as unbound fraction; assay type: ADME, cell-free
[20] = Solubility of compound in FaSSIF; assay type: physicochemical
[21] = Plasma protein binding in dog assessed as unbound fraction; assay type: ADME, cell-free, Canis lupus familiaris
[22] = Aqueous solubility of the compound at pH 2; assay type: physicochemical; conditions: aqueous solution
[23] = Solubility of compound in SGF; assay type: physicochemical
[24] = molecular target: T5, Cytochrome P450 3A4 (Homo sapiens, UniProt P08684); assay: Induction of CYP3A4 in human hepatocytes at 10 uM relative to control; assay type: ADME, cell-based, Hepatocyte
[25] = Half life in male overnight fasted Beagle dog at 5 mg/kg, po or 1 mg/kg, iv measured 24 hrs post dose by LC-MS/MS analysis; assay type: ADME, organism-based, Canis lupus familiaris; conditions: in vivo
[26] = molecular target: T5, Cytochrome P450 3A4; assay: Inhibition of human CYP3A4; assay type: ADME
[27] = molecular target: T5, Cytochrome P450 3A4; assay: Time dependent inhibition of CYP3A4 (unknown origin); assay type: ADME
[28] = molecular target: T2, PXR; assay: Activation of human PXR at 10 uM relative to control; assay type: toxicity; conditions: read-out: Activity
[29] = Oral bioavailability in male overnight fasted Beagle dog at 5 mg/kg measured 24 hrs post dose by LC-MS/MS analysis; assay type: ADME, organism-based, Canis lupus familiaris; conditions: in vivo
[30] = Volume of distribution at steady state in male Sprague-Dawley rat at 5 mg/kg, po or 1 mg/kg, iv measured 24 hrs post dose by LC-MS/MS analysis; assay type: ADME, organism-based; conditions: in vivo
[31] = molecular target: Cytochrome P450 2C19 (Homo sapiens, UniProt P33261); assay: Inhibition of human CYP2C19; assay type: ADME
[32] = Genotoxicity in Salmonella typhimurium by Ames II test; assay type: toxicity; conditions: salmonella enterica subsp. enterica serovar typhimurium
[33] = molecular target: T6, Cytochrome P450 2C8 (Homo sapiens, UniProt P10632); assay: Inhibition of human CYP2C8; assay type: ADME
T6 sequence (P10632 whole entry): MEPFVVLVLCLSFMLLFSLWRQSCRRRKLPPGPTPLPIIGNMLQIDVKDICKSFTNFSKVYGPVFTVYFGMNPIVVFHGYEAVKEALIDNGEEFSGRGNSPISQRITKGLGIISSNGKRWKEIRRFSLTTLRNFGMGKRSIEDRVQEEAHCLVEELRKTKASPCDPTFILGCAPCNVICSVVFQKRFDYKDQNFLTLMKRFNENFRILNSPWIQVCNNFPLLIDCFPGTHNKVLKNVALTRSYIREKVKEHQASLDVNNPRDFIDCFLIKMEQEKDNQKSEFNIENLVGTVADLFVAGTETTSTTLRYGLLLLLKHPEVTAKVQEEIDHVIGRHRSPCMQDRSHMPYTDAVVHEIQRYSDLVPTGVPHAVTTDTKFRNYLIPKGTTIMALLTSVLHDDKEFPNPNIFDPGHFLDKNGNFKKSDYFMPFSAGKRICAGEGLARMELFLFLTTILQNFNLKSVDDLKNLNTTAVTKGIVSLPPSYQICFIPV

[34] = molecular target: Voltage-gated inwardly rectifying potassium channel KCNH2 (Homo sapiens, UniProt Q12809); assay: Inhibition of hERG by Q-patch clamp method; assay type: toxicity
Voltage-gated inwardly rectifying potassium channel KCNH2, sequence (Q12809 whole entry): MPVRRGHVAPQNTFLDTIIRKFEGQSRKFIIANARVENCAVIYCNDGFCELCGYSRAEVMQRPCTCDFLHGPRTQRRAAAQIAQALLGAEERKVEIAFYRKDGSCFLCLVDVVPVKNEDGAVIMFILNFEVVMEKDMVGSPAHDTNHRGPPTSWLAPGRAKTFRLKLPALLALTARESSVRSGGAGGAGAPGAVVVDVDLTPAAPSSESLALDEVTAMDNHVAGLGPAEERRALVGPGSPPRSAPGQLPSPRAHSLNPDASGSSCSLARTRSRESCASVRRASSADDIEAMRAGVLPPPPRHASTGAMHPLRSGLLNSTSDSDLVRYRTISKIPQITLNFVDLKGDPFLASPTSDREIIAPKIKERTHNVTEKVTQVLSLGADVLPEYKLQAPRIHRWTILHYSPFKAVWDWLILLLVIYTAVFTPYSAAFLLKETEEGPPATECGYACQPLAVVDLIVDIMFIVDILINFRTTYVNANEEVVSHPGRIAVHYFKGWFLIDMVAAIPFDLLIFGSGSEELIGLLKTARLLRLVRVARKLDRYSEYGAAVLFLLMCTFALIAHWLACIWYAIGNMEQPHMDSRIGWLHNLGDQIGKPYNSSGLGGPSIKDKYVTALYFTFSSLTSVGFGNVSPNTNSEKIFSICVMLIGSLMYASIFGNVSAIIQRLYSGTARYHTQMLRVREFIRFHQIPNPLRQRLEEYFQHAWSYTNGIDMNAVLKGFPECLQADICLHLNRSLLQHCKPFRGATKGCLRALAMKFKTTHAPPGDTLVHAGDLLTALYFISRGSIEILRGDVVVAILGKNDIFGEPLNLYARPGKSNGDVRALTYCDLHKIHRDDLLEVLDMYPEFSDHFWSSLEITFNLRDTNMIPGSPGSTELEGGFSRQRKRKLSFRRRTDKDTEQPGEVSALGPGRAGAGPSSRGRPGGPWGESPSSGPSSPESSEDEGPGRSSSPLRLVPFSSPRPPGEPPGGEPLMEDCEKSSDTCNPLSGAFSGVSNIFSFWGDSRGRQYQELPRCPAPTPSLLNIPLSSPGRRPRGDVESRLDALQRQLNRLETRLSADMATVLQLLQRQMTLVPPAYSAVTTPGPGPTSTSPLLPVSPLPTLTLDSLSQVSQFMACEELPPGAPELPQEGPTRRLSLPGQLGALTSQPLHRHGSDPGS

T5 sequence (P08684 whole entry): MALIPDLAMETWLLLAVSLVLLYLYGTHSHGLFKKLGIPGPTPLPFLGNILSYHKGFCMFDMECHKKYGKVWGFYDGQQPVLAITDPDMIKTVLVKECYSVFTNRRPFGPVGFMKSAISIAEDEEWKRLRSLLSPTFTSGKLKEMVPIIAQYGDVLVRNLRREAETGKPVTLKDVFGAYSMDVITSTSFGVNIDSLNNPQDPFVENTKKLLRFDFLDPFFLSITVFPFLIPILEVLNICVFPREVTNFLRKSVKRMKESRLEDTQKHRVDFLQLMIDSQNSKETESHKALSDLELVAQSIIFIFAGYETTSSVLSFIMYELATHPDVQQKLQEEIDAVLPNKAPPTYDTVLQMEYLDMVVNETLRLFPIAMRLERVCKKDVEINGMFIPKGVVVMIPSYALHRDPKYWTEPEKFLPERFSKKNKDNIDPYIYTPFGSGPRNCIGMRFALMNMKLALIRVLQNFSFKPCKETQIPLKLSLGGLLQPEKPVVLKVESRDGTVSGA
Cytochrome P450 2C9, sequence (P11712 whole entry): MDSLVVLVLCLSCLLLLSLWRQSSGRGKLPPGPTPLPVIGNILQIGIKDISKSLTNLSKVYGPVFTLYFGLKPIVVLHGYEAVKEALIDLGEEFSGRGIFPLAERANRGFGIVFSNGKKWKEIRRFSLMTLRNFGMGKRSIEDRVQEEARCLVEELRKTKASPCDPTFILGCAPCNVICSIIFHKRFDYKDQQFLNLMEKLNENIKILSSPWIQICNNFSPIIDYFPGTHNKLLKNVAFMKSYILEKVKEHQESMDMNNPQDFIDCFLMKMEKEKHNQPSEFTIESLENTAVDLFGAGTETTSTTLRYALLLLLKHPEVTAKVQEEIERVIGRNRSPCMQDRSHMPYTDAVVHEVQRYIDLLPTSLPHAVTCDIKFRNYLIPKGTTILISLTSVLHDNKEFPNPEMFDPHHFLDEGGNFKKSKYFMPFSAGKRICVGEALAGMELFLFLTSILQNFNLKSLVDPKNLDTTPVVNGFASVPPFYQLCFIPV
Cytochrome P450 2D6, sequence (P10635 whole entry): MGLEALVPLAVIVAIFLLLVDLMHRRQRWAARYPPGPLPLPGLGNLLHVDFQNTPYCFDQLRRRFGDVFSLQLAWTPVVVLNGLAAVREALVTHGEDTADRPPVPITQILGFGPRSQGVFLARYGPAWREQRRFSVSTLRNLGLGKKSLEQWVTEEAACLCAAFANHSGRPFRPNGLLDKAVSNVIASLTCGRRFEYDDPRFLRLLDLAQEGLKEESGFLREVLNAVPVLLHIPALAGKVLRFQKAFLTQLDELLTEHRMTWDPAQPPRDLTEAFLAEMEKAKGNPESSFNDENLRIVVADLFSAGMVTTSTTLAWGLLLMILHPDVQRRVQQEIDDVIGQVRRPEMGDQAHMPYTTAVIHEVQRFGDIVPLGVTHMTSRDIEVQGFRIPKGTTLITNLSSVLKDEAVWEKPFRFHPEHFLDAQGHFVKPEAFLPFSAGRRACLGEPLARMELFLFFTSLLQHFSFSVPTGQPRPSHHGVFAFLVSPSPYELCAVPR
hERG, sequence (Q12809 whole entry): as the sequence (Q12809 whole entry) above
Cytochrome P450 2C19, sequence (P33261 whole entry): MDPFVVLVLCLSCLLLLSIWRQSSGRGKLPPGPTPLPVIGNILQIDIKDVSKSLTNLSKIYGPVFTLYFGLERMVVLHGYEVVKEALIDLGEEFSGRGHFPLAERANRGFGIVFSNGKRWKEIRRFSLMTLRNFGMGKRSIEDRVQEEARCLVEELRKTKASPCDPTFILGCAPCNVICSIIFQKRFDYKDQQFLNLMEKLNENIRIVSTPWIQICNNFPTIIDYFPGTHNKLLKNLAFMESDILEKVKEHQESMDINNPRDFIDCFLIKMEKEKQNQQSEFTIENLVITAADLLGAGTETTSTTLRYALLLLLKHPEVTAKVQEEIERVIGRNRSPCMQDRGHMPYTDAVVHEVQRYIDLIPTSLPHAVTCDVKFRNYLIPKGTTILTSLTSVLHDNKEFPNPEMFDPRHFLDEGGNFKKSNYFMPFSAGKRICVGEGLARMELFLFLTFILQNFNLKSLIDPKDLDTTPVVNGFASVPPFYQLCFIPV

fraction unbound [3]: 0.012
Vdss [4]: 1.5 L/kg
fraction unbound [5]: 0.008
IC50 [6]: 4.4 µM
solubility [7]: < 4 µM
IC50 [8]: 0.12 µM
bioavailability [9]: 69%
half-life [10]: > 3 h
Activity [11]: Not_active
half-life [12]: > 3 h
IC50 [13]: 0.21 µM
half-life [14]: > 3 h
IC50 [15]: 3.8 µM
half-life [16]: 4.1 h
Activity [18]: Not_active
fraction unbound [19]: 0.008
solubility [20]: < 4 µM
fraction unbound [21]: 0.009
solubility [22]: < 4 µM
solubility [23]: < 4 µM
Activity [24]: 26%
half-life [25]: 26.2 h
IC50 [26]: 20 µM
TDI [27]: Not_active
bioavailability [29]: 100%
Vdss [30]: 1.3 L/kg
IC50 [31]: 31 µM
IC50 [33]: 18 µM
Structure (SMILES): C[C@H]1CCCN1C(=O)c1nc(C(=O)NCC(C)(C)O)sc1-c1ccc(C(O)(C(F)(F)F)C(F)(F)F)c(Cl)c1Cl
Activity [1]: 18%
activity at 5 µM [2]: 21%
inhibition at 10 µM [17]: 52%
activity at 10 µM [28]: 42%
Activity [32]: Non-toxic
IC50 [34]: 29.5 µM
